From patent publication US12728125B2, “Methods for treating neutropenia” (X4 Pharmaceuticals, Inc., priority 2020, dated 2026)
Marks after values point to notes of the source that are not given here.

Tests used:
[1] = system: circulating CFU-GM, BFU-E, CFU-GEMM progenitor cells and nucleated cells; experiment: Progenitor/stem cell mobilization in mice after single subcutaneous injection; assay type: in vivo, C3H/HeJ mice
Method: A further study was conducted to determine whether X4P-001 mobilizes progenitor/stem cells in mice. All experiments were performed in […] mice. X4P-001 and AMD3 100/plerixafor were administered via single subcutaneous injection at the doses described below. The mobilization capacity of X4P-001 was assessed by the numbers of granulocyte-macrophage (CFU-GM), erythroid (BFU-E) and multipotential (CFU-GEMM) progenitor cells per mL of blood. The progenitors were stimulated to form colonies in vitro with the combination of 1 U/mL rhu EPO, 50 ng/mL rmu SLF, 5% vol/vol pokeweed mitogen mouse spleen cell conditioned medium (PWMSCM), and 0.1 mM hemin. Plates were scored 7 days after incubation at 37° C., […] and in a humidified chamber.
In the first experiment (data shown in Table 7), mice received a dose of 5 mg/kg- and the number of progenitors in the circulating blood was measured at various time points (0.25, 0.5, 1, 2, 6 and 24 hours).
An X4P-001 dose-response was performed by measurement of the number of circulating progenitors in the blood at 1 hour post-injection at various doses (1.5, 2.5, 5, 10 and 20 mg/kg).
A final experiment was performed to compare the progenitor cell mobilization capacity of X4P-001 and AMD3100/plerixafor.

[2] = system: WBC, neutrophil and lymphocyte counts; experiment: Hematologic effects of a single oral dose in the male Beagle dog; assay type: in vivo
Method: Three fasted male Beagle dogs received a single dose of X4P-001 in aqueous solution by oral gavage at dose levels of 5, 15, and 35 mg/kg (1 dog per dose level) in a volume of 1 mL/kg. Blood samples (approximately 3 mL each) were obtained at multiple timepoints from each animal by direct venipuncture of the jugular vein and collected using Vacutainer® tubes containing K3EDTA as the anticoagulant. Blood samples were obtained at pre-dose, and 0.25, 0.5, 0.75, 1, 1.5, 2, 3, 4, 7, 12, and 24 hours post-dose. Blood samples were stored at ambient room temperature prior to automated differential analysis.
Body weights were determined prior to dosing on the day of test article administration.
Hematology parameters included the following: • White Blood Cell Count (WBC) • Differential white blood cell count (absolute and relative) • Neutrophil • Lymphocytes • Monocytes • Eosinophils • Basophils • Large Unstained Cells (LUC) • Hematocrit (HCT) • Hemoglobin (HGB) • Mean Corpuscular Hemoglobin (MCH) • Mean Corpuscular Hemoglobin Concentration (MCHC) • Mean Corpuscular Volume (MCV) • Platelet Count (PLT). • Red Blood Cell Count (RBC) Results

[3] = system: hematology and coagulation; experiment: 28-day GLP oral (capsule) toxicity study in the Beagle dog with 14-day recovery; assay type: in vivo
Method: A 28-Day GLP oral (capsule) toxicology study was conducted with […]-001 in the male and female beagle dog, and hematology effects were observed, with […]-001 administered twice-daily (at least 7 hours apart) by oral capsule for 28 days. A subset of treated animals was evaluated after a 14-day recovery period. [table] [table]

[4] = human, in vivo
Method: In some embodiments, the dose is selected to provide consistent clinically relevant elevations of both ANC and ALC, with low risk of significant adverse effects. Dosage of 400 mg per day BID for 3.5 days (healthy volunteers) (Stone 2007) and 200 mg BID for 8-10 days (healthy volunteers and HIV patients) were well-tolerated with no pattern of adverse events or clinically significant laboratory changes.

[5] = in vivo
Method: In certain embodiments, the dosage composition may be provided twice a day in divided dosage, approximately 12 hours apart. In other embodiments, the dosage composition may be provided once daily.

CXCR4 = CXCR4 (Homo sapiens, UniProt P61073); conditions: SDF-1α dose/response in calcium flux with increasing X4P-001; cited from earlier work
CXCR4, sequence (P61073 whole entry): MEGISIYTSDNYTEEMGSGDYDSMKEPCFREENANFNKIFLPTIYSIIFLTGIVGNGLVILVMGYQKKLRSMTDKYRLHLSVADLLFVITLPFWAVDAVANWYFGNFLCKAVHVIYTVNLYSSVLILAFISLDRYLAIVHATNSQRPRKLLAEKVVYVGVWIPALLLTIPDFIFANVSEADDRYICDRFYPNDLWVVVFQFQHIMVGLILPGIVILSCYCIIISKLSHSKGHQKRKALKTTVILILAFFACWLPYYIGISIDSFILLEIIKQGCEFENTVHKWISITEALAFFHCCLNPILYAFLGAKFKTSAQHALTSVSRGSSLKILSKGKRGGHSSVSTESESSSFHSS

[6] = 400-mg single-dose subject (Stone, 2007); cited from earlier work
[7] = cited from earlier work; for Bone pain incidence, as high as: Ferguson 2015 (filgrastim), Kirshner 2012 (pegfilgrastim)
[8] = Table 9 comparison, 5 mg/kg s.c., @ - 60″ (1 h)
[9] = females, 10 mg/kg/d, Day 28, p < 0.05
[10] = females, 30 mg/kg/d, Day 28, p < 0.05
[11] = females, 100 mg/kg/d, Day 28, p < 0.05
[12] = males, 100 mg/kg/d, Day 28, p < 0.05
[13] = Table 7 time course, 5 mg/kg s.c., @ - 2′ (2 h)
[14] = Table 7 time course, 5 mg/kg s.c., @ - 6′ (6 h)
[15] = Table 7 time course, 5 mg/kg s.c., @ - 15″ ([…])
[16] = Table 7 time course, 5 mg/kg s.c., @ - 24′ (24 h)
[17] = Table 7 time course, 5 mg/kg s.c., @ - 30″ (0.5 h)
[18] = Table 7 time course, 5 mg/kg s.c., @ - 60″ (1 h)
[19] = Table 8 dose response, 1 hour post-injection, 1.5 mg/kg
[20] = Table 8 dose response, 1 hour post-injection, 5 mg/kg
[21] = Table 8 dose response, 1 hour post-injection, 10 mg/kg
[22] = Table 8 dose response, 1 hour post-injection, 20 mg/kg
[23] = Table 9 comparison, 5 mg/kg s.c., @ - 2′ (2 h)
[24] = Table 9 comparison, 5 mg/kg s.c., @ - 15″ ([…])
[25] = Table 9 comparison, 5 mg/kg s.c., @ - 30″ (0.5 h)

Molecule: c1cc(CN2CCCNCCNCCCNCC2)ccc1CN1CCCNCCNCCCNCC1 [AMD3100, plerixafor, reference compound]
- BFU (BFU-E), Mean [1, 8]: 207.7 per mL of blood
- GEMM (CFU-GEMM), Mean [1, 8]: 138.5 per mL of blood
- GM (CFU-GM), Mean [1, 8]: 1950.3 per mL of blood

Molecule: NCCCCN(Cc1nc2ccccc2[nH]1)[C@H]1CCCc2cccnc21 [Mavorixafor, mavorixafor]
- Time at which increases typically peaked ([2]; 5, 15, 35 mg/kg oral): 12 h
- Other hematological effects ([2]; single oral dose 5, 15, 35 mg/kg): No other hematological effects were observed
- Hematology results after the 14-day recovery period ([3]; 100 mg/kg dose group): returned to within normal levels
- Lymphocytes (abs), increase ([3]; females, 10 mg/kg/d, Day 28): F incr 1.4×
- Monocytes (abs), increase [3, 9]: F incr 1.6×†
- Neutrophils (abs), increase [3, 9]: F incr 1.9×†
- Lymphocytes (abs), increase [3, 10]: F incr 1.6×†
- Monocytes (abs), increase [3, 10]: F incr 1.9×†
- Neutrophils (abs), increase [3, 10]: F incr 2.3×†
- Lymphocytes (abs), increase [3, 11]: F incr 1.4×†
- Monocytes (abs), increase [3, 11]: F incr 2.4×†
- Neutrophils (abs), increase [3, 11]: F incr 2.8×†
- Reticulocytes, decrease [3, 11]: F decr 0.24†
- Lymphocytes (abs), increase ([3]; males, 10 mg/kg/d, Day 28): M incr 1.3×;
- Monocytes (abs), increase ([3]; males, 10 mg/kg/d, Day 28): M incr 1.2×;
- Neutrophils (abs), increase ([3]; males, 10 mg/kg/d, Day 28): M incr 1.2×;
- Lymphocytes (abs), increase ([3]; males, 30 mg/kg/d, Day 28): M incr 1.6×;
- Monocytes (abs), increase ([3]; males, 30 mg/kg/d, Day 28): M incr 1.3×;
- Neutrophils (abs), increase ([3]; males, 30 mg/kg/d, Day 28): M incr 1.2×;
- Neutrophils (abs), increase ([3]; males, 100 mg/kg/d, Day 28): M incr 1.8×;
- Lymphocytes (abs), increase [3, 12]: M incr 2.3×†;
- Monocytes (abs), increase [3, 12]: M incr 1.9×†;
- BFU (BFU-E), Mean [1, 13]: 165.3 per mL of blood
- GEMM (CFU-GEMM), Mean [1, 13]: 68.9 per mL of blood
- GM (CFU-GM), Mean [1, 13]: 897.5 per mL of blood
- BFU (BFU-E), Mean [1, 14]: 99.9 per mL of blood
- GEMM (CFU-GEMM), Mean [1, 14]: 37.6 per mL of blood
- GM (CFU-GM), Mean [1, 14]: 387.5 per mL of blood
- BFU (BFU-E), Mean [1, 15]: 148.8 per mL of blood
- GEMM (CFU-GEMM), Mean [1, 15]: 65.6 per mL of blood
- GM (CFU-GM), Mean [1, 15]: 785.1 per mL of blood
- BFU (BFU-E), Mean [1, 16]: 84.6 per mL of blood
- GEMM (CFU-GEMM), Mean [1, 16]: 37.7 per mL of blood
- GM (CFU-GM), Mean [1, 16]: 386.3 per mL of blood
- BFU (BFU-E), Mean [1, 17]: 230.4 per mL of blood
- GEMM (CFU-GEMM), Mean [1, 17]: 99.6 per mL of blood
- GM (CFU-GM), Mean [1, 17]: 1273.8 per mL of blood
- BFU (BFU-E), Mean [1, 18]: 235.1 per mL of blood
- GEMM (CFU-GEMM), Mean [1, 18]: 103.1 per mL of blood
- GM (CFU-GM), Mean [1, 18]: 866.0 per mL of blood
- BFU (BFU-E), Mean [1, 19]: 143.8 per mL of blood
- GEMM (CFU-GEMM), Mean [1, 19]: 53.3 per mL of blood
- GM (CFU-GM), Mean [1, 19]: 428.0 per mL of blood
- BFU (BFU-E), Mean [1, 20]: 181.6 per mL of blood
- GEMM (CFU-GEMM), Mean [1, 20]: 141.0 per mL of blood
- GM (CFU-GM), Mean [1, 20]: 1119.8 per mL of blood
- BFU (BFU-E), Mean [1, 21]: 268.1 per mL of blood
- GEMM (CFU-GEMM), Mean [1, 21]: 224.4 per mL of blood
- GM (CFU-GM), Mean [1, 21]: 1444.2 per mL of blood
- BFU (BFU-E), Mean [1, 22]: 261.4 per mL of blood
- GEMM (CFU-GEMM), Mean [1, 22]: 145.0 per mL of blood
- GM (CFU-GM), Mean [1, 22]: 1314.2 per mL of blood
- BFU (BFU-E), Mean [1, 23]: 108.5 per mL of blood
- GEMM (CFU-GEMM), Mean [1, 23]: 62.4 per mL of blood
- GM (CFU-GM), Mean [1, 23]: 619.6 per mL of blood
- BFU (BFU-E), Mean [1, 24]: 188.9 per mL of blood
- GEMM (CFU-GEMM), Mean [1, 24]: 93.8 per mL of blood
- GM (CFU-GM), Mean [1, 24]: 588.3 per mL of blood
- BFU (BFU-E), Mean [1, 25]: 151.9 per mL of blood
- GEMM (CFU-GEMM), Mean [1, 25]: 79.0 per mL of blood
- GM (CFU-GM), Mean [1, 25]: 705.9 per mL of blood
- BFU (BFU-E), Mean [1, 8]: 144.3 per mL of blood
- GEMM (CFU-GEMM), Mean [1, 8]: 102.2 per mL of blood
- GM (CFU-GM), Mean [1, 8]: 761.4 per mL of blood
- Overall tolerability in clinical studies [4]: generally well tolerated
- Terminal half-life [5]: approximately 14.5 hrs
- Mode of CXCR4 inhibition (CXCR4): allosteric inhibitor
- Increase in circulating white blood cells (leukocytosis) above baseline [6]: 2.9 fold

B1: filgrastim (protein, chains of the INN, looked up)
chain: MTPLGPASSLPQSFLLKCLEQVRKIQGDGAALQEKLCATYKLCHPEELVLLGHSLGIPWAPLSSCPSQALQLAGCLSQLHSGLFLYQGLLQALEGISPELGPTLDTLQLDVADFATTIWQQMEELGMAPALQPTQGAMPAFASAFQRRAGGVLVASHLQSFLEVSYRVLRHLAQP
modifications: N-terminal methionine, recombinant
notes: granulocyte colony-stimulating factor, standard of care for severe chronic neutropenia
- Bone pain incidence, as high as [7]: 66%
- Bone pain incidence reported on label ([7]; label): 24%

B2: pegfilgrastim (protein, chains of the INN, looked up)
chain: TPLGPASSLPQSFLLKCLEQVRKIQGDGAALQEKLCATYKLCHPEELVLLGHSLGIPWAPLSSCPSQALQLAGCLSQLHSGLFLYQGLLQALEGISPELGPTLDTLQLDVADFATTIWQQMEELGMAPALQPTQGAMPAFASAFQRRAGGVLVASHLQSFLEVSYRVLRHLAQP
modifications: PEG conjugate, N-terminal methionine
notes: pegylated G-CSF
- Bone pain incidence, as high as [7]: 59%
- Severe bone pain incidence ([7]; Kirshner et al. 2012): 24%
